One block for each compound: values may come before it.
Key:
[1] = Solubility of Melperone HCl in various media; assay type: physicochemical
[2] = test system: psychosis in patients with PD; details: cited from earlier work
[3] = human, in vivo; cited from earlier work
[4] = cited from earlier work
[5] = cited from earlier work; remark: listed apart in the source
[6] = test system: psychosis associated with PD; details: initial open-label studies; cited from earlier work

Solubility in aqueous solutions ([1]; higher pH values (above pH=7.5)): poorly soluble
Solubility in aqueous solutions ([1]; pH range from about 1.2 up to about pH 6.8): freely soluble
SMILES: CC1CCN(CCCC(=O)c2ccc(F)cc2)CC1 [melperone]
time over which efficacy was maintained ([2]; mean daily dose of 37.5 mg): 2 years
efficacy in the treatment of psychosis in patients with PD ([2]; proof-of-concept study): has shown efficacy
onset of efficacy ([2]; proof-of-concept study): rapid (within a week)
incidence of extrapyramidal side effect (EPS) or tardive dyskinesia [3]: low incidence
mean Tmax ([4]; oral tablet administration): 1.5 to 3.0 h
absolute oral bioavailability ([4]; oral, extensive first-pass metabolism): 50-70%

solubility ([1]; ethanol, organic solvent or mixture): 88.5 mg/mL
solubility ([1]; phosphate buffer, aqueous buffer, pH 4.5 (phosphate)): 800 mg/mL
solubility ([1]; phosphate buffer, aqueous buffer, pH 6.8 (phosphate)): 800 mg/mL
solubility ([1]; phosphate buffer, aqueous buffer, pH 7.0 (phosphate)): ≥ 100 mg/mL
solubility ([1]; phosphate buffer, aqueous buffer, pH 7.1 (phosphate)): 51.3 mg/mL
solubility ([1]; phosphate buffer, aqueous buffer, pH 7.5 (phosphate)): 25.6 mg/mL
solubility ([1]; purified water, water): 800 mg/mL
solubility ([1]; simulated gastric fluid, pH 1.2 (0.1N HCl)): 700 mg/mL
SMILES: CC1CCN(CCCC(=O)c2ccc(F)cc2)CC1.Cl [Melperone HCl, 1-(4-fluorophenyl)-4-(4-methyl-1-piperidinyl)-1-butanone hydrochloride]
pKa [5]: 9.1

SMILES: OCCOCCN1CCN(C2=Nc3ccccc3Sc3ccccc32)CC1 [quetiapine]
efficacy in psychosis associated with PD [6]: has shown efficacy
patients with worsening of motor symptoms of PD [6]: up to 30%

From patent publication US20100151015A1 (priority 2008, published 2010)
